Assay results as given in article PMC8305651 (International Journal of Molecular Sciences, 2021).

Biological target: wild-type PA-Nter (Influenza A virus, UniProt C3W5S0, DEL51-57/DEL61-72/E59G)
Assay type: biochemical, influenza A/California/07/2009 (H1N1)

O=c1cc(-c2ccc(O)c(O)c2)oc2c([C@@H]3O[C@H](CO)[C@@H](O)[C@H](O)[C@H]3O)c(O)cc(O)c12 [orientin]
inhibition of endonuclease activity, gel-based assay (qualitative): higher inhibitory potency than luteolin
